By Inhibition is commonly meant the change of the read-out against control, counted positive when it falls. Broadly, the Km is the substrate concentration at which the rate is half of its maximum.

The values that follow come from ChEMBL document CHEMBL1128089, “A carbene-generating biotinylated lactosylceramide analog as novel photoreactive substrate for GM3 synthase” (Bioorg Med Chem Lett, 1995).

Values joined by “and” are separate entries in the source; they are usually repeats but may differ in a detail not shown here. Equal entries are not always repeated.

The species named for series [1] is Rattus norvegicus. Nature of the series: Evaluation of competition between CDH and compound using [3H]NANA as ligand in sialyltransferase assay at a concentration of 0.90 mM.
The species named for series [2] is Rattus norvegicus. Nature of the series: Evaluation of inhibition of CDH sialylation by the compound at a concentration of 0 mM. Format: functional.
The species named for series [3] is Rattus norvegicus. In words: Evaluation of inhibition of CDH sialylation by the compound at a concentration of 0.9 mM. The series is classed as functional.
A short description of series [4]: Km from Lineweaver-Burke plot. Format: ADME.
For series [5], the species on record is Rattus norvegicus. Nature of the series: Evaluation of competition between CDH and compound using [3H]NANA as ligand in sialyltransferase assay at a concentration of 0.18 mM.

Regarding `O=C(CCCC[C@@H]1SC[C@@H]2NC(=O)N[C@@H]21)NCCCC[C@H](NC(=O)c1ccc(C2(C(F)(F)F)N=N2)cc1)C(=O)NCCO[C@@H]1O[C@@H](CO)[C@@H](O[C@@H]2O[C@@H](CO)[C@H](O)[C@H](O)[C@@H]2O)[C@H](O)[C@@H]1O`, the Binding is 8610 dpm in series [1]; 3850 dpm and 9480 dpm in series [5]. In addition, the Inhibition in series [2] turned out to be 0%; in series [3], 64%. Moreover, the Km in series [4] worked out at 180 µM.
